Measurements taken from US20240182945A1, “PRODUCTS FOR REGULATION OF EUKARYOTIC AND MICROBIAL CELLS GROWTH” (priority 2021, published 2024).

Key:
Format in all cases: cell-based
[1] = system: B. sonorensis; experiment: Growth of microbial modulator alone on antibiotic-supplemented Columbia agar; conditions: Bacterial set #1; Meropenem (16 μg/mL); Columbia agar with erythrocytes 5%, 24 h at 37 C
[2] = system: S. anginosus; experiment: as above; conditions: Bacterial set #1; Meropenem (16 μg/mL); Columbia agar with erythrocytes 5%, 24 h at 37 C
[3] = system: E. coli; experiment: as above; conditions: Columbia agar with erythrocytes 5%, 24 h at 37 C
[4] = system: MIX—PP +BM (P. aeruginosa with microbial modulators); experiment: Growth of mix PP + MM (original sputum) on antibiotic-supplemented Columbia agar; conditions: Columbia agar with erythrocytes 5%, 24 h at 37 C
[5] = system: P. aeruginosa; experiment: Growth of primary pathogen alone on antibiotic-supplemented Columbia agar; conditions: Columbia agar with erythrocytes 5%, 24 h at 37 C
Protocol: Four sputum samples from patients with lung infections were used. Pure bacterial culture of each microorganisms was obtained by routine microbiological methods.
In this case this antibiotic at MIC of 16 ug/mL was used in the following studies. PP alone, or Microbial Modulators (MM) alone or the original sputum were plated on the wells of 24 well plate filled with nutrient Columbia agar supplemented with erythrocytes 5% and supplemented with antibiotics taken as MIC determined against PP, but not more than 16 μg/mL and incubated 24 h at 37 C.

[6] = system: bacteria of sputum from patients with lung diseases; experiment: Sputum plated on 24-well plates with antibiotics at Cmax or C0-4 h, Algorithm #1 or #2; further: key: '+'—presence of bacterial growth, antibiotic ineffective; '−'—absence of bacterial growth, antibiotic effective
Protocol: Pathological material (sputum) from patients with lung diseases was plated into wells of 24-well plates filled with a nutrient medium supplemented with erythrocytes 5%, to which antibiotics were added taken at different concentrations.
Group #1—antibiotics were taken at concentrations close to a maximum (peak) concentration achievable at the site of infection Cmax
Algorithm #1. Lab technician, analyzed the appearance of bacterial growth by comparing the signs of bacterial growth in each well supplemented with antibiotic(s) at certain timepoint, with the signs of bacterial growth in the same well at previous time point(s).
Algorithm #2. Lab technician analyzed the appearance of bacterial growth by comparing the signs of bacterial growth in each well supplemented with antibiotic(s) with bacterial growth in antibiotic-free control

[7] = system: bacteria of sputum from patients with lung diseases; experiment: Standard antibiotic susceptibility study using the microbroth dilution method (Algorithm #3); further: key: '+'—presence of bacterial growth, antibiotic ineffective; '−'—absence of bacterial growth, antibiotic effective
Text: Algorithm #3—Standard antibiotic susceptibility study using the microbroth dilution method.

[8] = system: S. aureus; experiment: Growth of microbial modulator alone on antibiotic-supplemented Columbia agar; conditions: Bacterial set #3; Ceftazidime (2 μg/mL); Columbia agar with erythrocytes 5%, 24 h at 37 C
[9] = system: B. thailandensis; conditions: Bacterial set #3; Ceftazidime (2 μg/mL); Columbia agar with erythrocytes 5%, 24 h at 37 C
[10] = system: S. haemolyticus; experiment: Growth of microbial modulator alone on antibiotic-supplemented Columbia agar; conditions: Bacterial set #4; Amikacin (1 μg/mL); Columbia agar with erythrocytes 5%, 24 h at 37 C
[11] = Bacterial set #1, Meropenem (16 μg/mL)
[12] = Algorithm #1, antibiotic at C0-4 h
[13] = Algorithm #1, antibiotic at Cmax
[14] = Algorithm #2, antibiotic at C0-4 h
[15] = Algorithm #2, antibiotic at Cmax
[16] = Bacterial set #3, Ceftazidime (2 μg/mL)
[17] = Bacterial set #4, Amikacin (1 μg/mL)

## C[C@@H](O)[C@H]1C(=O)N2C(C(=O)O)=C(S[C@@H]3CN[C@H](C(=O)N(C)C)C3)[C@H](C)[C@H]12 [Meropenem]
[1]
  microbial growth, BS (BM alone): −
[2]
  microbial growth, SA (BM alone): −
[3]; [11]
  microbial growth, EC (BM alone): +
[4]; [11]
  microbial growth, MIX (PP + MM): −
[5]; [11]
  microbial growth, PA (PP alone): +

## CC(C)(O/N=C(\C(=O)N[C@@H]1C(=O)N2C(C(=O)[O-])=C(C[n+]3ccccc3)CS[C@H]12)c1csc(N)n1)C(=O)O [Ceftazidime]
[6]; [12]
  ATB efficacy: +
[6]; [13]
  ATB efficacy: +
[6]; [14]
  ATB efficacy: +
[6]; [15]
  ATB efficacy: +
[7]
  ATB efficacy: +
[8]
  microbial growth, SA (BM alone): +
[4]; [16]
  Presence of PP in Mix (PP + MM): −
[9]
  microbial growth, BT (BM alone): +
[5]; [16]
  microbial growth, PA (PP alone): +

## NCC[C@H](O)C(=O)N[C@@H]1C[C@H](N)[C@@H](O[C@H]2O[C@H](CN)[C@@H](O)[C@H](O)[C@H]2O)[C@H](O)[C@H]1O[C@H]1O[C@H](CO)[C@@H](O)[C@H](N)[C@H]1O [Amikacin]
[6]; [12]
  ATB efficacy: −
[6]; [13]
  ATB efficacy: −
[6]; [14]
  ATB efficacy: −
[6]; [15]
  ATB efficacy: −
[7]
  ATB efficacy: −
[10]
  microbial growth, SH (BM alone): +
[3]; [17]
  microbial growth, EC (BM alone): −
[4]; [17]
  Presence of PP in Mix (PP + MM): −
[5]; [17]
  microbial growth, PA (PP alone): +
